EC50 and IC50 data for five compounds are collected here from ChEMBL document CHEMBL1135773, “Purine and pyrimidine (P2) receptors as drug targets” (J Med Chem, 2002).

Assay [1] has as its target T1, P2X purinoceptor 2 (Rattus norvegicus, UniProt P49653).
T1 sequence (P49653 whole entry): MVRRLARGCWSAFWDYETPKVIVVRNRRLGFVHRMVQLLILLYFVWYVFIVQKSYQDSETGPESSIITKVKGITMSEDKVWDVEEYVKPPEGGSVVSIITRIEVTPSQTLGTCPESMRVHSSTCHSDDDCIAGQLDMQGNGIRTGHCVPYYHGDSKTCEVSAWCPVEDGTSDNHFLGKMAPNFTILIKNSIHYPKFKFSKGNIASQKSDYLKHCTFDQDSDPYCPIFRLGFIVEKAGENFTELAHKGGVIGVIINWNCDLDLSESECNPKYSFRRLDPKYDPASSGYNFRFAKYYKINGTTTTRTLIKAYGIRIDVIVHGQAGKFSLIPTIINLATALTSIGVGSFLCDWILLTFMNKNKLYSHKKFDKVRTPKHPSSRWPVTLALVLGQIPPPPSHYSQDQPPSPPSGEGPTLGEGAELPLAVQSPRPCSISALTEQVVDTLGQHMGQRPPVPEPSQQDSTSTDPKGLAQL
Briefly: The compound was evaluated for antagonist activity against recombinant rat P2X purinoceptor 2 (P2X2) at 30 uM. The class given is functional.

In assay [2] the target is T2, P2X purinoceptor 4 (Rattus norvegicus, UniProt P51577).
T2 sequence (P51577 whole entry): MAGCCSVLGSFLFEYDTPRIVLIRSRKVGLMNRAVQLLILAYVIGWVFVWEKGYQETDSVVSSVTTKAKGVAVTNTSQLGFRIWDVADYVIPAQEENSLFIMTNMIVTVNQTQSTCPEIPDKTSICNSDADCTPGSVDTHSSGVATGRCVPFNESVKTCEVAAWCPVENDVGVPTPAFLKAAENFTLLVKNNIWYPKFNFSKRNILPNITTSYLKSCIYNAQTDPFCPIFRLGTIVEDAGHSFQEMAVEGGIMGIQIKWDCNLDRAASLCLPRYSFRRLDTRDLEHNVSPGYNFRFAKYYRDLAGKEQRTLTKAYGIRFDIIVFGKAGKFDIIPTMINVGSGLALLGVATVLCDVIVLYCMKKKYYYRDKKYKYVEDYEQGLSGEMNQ
Briefly: The compound was evaluated for antagonist activity against recombinant rat P2X purinoceptor 4 (P2X4) 3 uM. The assay is classed as functional.

For assay [3], the target named is T3, P2X purinoceptor 1 (Rattus norvegicus, UniProt P47824).
T3 sequence (P47824 whole entry): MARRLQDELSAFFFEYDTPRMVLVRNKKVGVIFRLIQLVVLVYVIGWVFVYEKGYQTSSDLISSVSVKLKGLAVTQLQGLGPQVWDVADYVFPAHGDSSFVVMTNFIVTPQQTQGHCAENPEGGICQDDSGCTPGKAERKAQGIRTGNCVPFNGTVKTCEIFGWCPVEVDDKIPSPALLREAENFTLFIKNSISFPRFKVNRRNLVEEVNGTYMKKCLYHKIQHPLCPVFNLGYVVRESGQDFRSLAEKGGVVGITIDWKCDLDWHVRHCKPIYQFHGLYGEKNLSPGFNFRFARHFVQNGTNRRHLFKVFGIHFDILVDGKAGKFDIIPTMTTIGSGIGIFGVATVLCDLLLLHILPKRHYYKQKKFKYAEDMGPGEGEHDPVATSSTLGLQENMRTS
Briefly: The compound was evaluated for antagonist activity against recombinant rat P2X purinoceptor 1 (P2X1). The assay is classed as functional.

The target of another assay is P2X purinoceptor 7 (Rattus norvegicus, UniProt Q64663). Briefly: The compound was evaluated for antagonist activity against P2X purinoceptor 7 (P2X7) in rat parotid acinar cells. The class given is functional, cell-based.
Sequence of P2X purinoceptor 7 (Q64663 whole entry): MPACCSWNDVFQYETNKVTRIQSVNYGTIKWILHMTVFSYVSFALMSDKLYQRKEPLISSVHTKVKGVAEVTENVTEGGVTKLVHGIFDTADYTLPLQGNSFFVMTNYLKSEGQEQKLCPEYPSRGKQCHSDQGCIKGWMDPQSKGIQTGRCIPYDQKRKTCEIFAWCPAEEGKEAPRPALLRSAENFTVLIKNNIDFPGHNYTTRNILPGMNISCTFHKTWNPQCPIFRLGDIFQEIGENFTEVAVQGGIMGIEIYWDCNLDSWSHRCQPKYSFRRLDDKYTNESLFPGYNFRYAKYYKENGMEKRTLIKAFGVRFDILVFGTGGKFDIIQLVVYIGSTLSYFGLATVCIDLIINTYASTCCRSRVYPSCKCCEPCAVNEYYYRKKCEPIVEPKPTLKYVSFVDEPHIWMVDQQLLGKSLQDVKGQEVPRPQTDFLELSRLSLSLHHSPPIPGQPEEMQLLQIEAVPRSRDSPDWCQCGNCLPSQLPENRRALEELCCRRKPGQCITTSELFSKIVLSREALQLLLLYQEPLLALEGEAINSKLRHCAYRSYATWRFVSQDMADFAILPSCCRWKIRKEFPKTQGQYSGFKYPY
The target of the next assay is T4, P2Y purinoceptor 11 (Homo sapiens, UniProt Q96G91).
T4 sequence (Q96G91 whole entry): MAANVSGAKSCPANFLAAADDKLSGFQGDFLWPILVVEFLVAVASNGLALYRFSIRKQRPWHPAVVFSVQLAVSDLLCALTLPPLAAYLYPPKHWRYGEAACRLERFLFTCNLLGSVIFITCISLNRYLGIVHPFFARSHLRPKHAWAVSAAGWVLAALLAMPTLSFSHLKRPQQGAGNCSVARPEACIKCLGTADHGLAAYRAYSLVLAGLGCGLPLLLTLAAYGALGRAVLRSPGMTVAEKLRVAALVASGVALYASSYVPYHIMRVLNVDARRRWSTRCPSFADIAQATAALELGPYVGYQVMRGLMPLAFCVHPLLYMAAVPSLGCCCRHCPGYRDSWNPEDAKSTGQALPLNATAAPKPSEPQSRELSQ
Briefly: Agonist activity against phospholipase C coupled human P2Y purinoceptor 11 (P2Y11). The class given is functional.

The target in assay [4] is P2Y purinoceptor 12 (Homo sapiens, UniProt Q9H244). Briefly: The compound was evaluated for antagonist activity against phospholipase C coupled human P2Y purinoceptor 12 (P2Y12). The class given is functional.
Sequence of P2Y purinoceptor 12 (Homo sapiens, UniProt Q9H244) (Q9H244 whole entry): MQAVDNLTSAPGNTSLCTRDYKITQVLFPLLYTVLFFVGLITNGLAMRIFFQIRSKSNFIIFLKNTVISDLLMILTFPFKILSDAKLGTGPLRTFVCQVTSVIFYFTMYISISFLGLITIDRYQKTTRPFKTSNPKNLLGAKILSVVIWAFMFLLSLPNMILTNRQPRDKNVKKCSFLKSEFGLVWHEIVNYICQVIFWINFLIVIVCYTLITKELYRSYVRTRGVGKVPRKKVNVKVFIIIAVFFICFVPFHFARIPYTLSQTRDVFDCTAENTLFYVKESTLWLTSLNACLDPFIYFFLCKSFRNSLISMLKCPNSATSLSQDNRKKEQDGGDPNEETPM
Assay [5] has as its target T2, P2X purinoceptor 4. Put plainly: The compound was evaluated for antagonist activity against recombinant rat P2X purinoceptor 4 (P2X4) at 10 uM. The class given is functional.
Assay [6] has as its target P2Y purinoceptor 12 (Rattus norvegicus, UniProt Q9EPX4). Briefly: Antagonist activity against phospholipase C coupled rat P2Y purinoceptor 12 (P2Y12). The assay is classed as functional.
The target of assay [7] is T5, P2X purinoceptor 1 (Homo sapiens, UniProt P51575).
T5 sequence (P51575 whole entry): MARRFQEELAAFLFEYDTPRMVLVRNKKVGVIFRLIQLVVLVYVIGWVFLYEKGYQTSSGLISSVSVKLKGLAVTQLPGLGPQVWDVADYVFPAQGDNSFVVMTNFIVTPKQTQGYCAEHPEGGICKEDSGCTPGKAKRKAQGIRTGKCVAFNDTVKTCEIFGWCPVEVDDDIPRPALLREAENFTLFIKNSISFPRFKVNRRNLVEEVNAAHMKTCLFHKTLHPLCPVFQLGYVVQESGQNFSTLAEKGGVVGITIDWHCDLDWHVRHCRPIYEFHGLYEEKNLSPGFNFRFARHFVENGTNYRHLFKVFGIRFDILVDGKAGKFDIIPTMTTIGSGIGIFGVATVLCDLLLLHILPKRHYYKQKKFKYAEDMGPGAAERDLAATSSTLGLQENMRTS
Put plainly: Antagonist activity against recombinant human P2X purinoceptor 1 (P2X1 ). The assay is classed as functional.

The target in the next assay is P2Y purinoceptor 6 (Homo sapiens, UniProt Q15077). Put plainly: The compound was evaluated for agonist activity against phospholipase C coupled recombinant human P2Y purinoceptor 6 (P2Y6). The assay is classed as functional.
Sequence of P2Y purinoceptor 6 (Q15077 whole entry): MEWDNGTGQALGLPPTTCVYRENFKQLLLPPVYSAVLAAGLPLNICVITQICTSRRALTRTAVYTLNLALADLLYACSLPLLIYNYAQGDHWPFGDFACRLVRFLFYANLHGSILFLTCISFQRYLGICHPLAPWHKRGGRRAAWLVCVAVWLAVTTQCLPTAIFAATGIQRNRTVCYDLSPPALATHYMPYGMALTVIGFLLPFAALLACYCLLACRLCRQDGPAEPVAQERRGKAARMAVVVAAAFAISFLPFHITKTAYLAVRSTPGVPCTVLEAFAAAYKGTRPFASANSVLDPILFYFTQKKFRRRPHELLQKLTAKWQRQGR
For assay [8], the target named is T1, P2X purinoceptor 2. Put plainly: Antagonist activity against recombinant rat receptor P2X purinoceptor 2 (P2X2) at 10 uM, expressed in Xenopus oocytes. The class given is functional, cell-based, Oocyte.
The next assay has as its target P2Y purinoceptor 4 (Homo sapiens, UniProt P51582). Put plainly: The compound was evaluated for antagonist activity against phospholipase C coupled recombinant human P2Y purinoceptor 4 (P2Y4). The class given is functional.
In assay [9] the target is P2X purinoceptor 7 (Homo sapiens) (UniProt Q99572). Put plainly: The compound was evaluated for antagonist activity against recombinant human P2X purinoceptor 7 (P2X7). The class given is functional.
Sequence of P2X purinoceptor 7 (Homo sapiens) (Q99572 whole entry): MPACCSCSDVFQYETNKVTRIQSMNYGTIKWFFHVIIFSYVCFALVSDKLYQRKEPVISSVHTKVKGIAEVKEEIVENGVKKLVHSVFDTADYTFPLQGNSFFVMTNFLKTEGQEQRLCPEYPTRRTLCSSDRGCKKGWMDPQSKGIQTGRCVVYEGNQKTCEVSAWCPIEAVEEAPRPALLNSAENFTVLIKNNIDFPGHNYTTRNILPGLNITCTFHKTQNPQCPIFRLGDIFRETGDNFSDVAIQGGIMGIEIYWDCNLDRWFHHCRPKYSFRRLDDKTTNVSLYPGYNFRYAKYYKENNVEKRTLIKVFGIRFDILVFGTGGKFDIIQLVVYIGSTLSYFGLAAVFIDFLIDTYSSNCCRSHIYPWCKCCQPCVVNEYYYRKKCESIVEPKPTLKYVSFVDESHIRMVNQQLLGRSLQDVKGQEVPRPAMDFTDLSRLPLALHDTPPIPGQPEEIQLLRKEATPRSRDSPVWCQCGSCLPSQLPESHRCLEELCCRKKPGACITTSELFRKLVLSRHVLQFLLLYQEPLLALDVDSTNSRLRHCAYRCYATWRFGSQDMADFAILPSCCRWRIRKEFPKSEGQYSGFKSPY
Another assay has as its target P2Y purinoceptor 2 (Homo sapiens, UniProt P41231). Briefly: Evaluated for agonist activity against phospholipase C coupled recombinant human P2Y purinoceptor 2 (P2Y2). The assay is classed as functional.
Assay [10] addresses T2, P2X purinoceptor 4. Briefly: Antagonist activity against recombinant rat P2X purinoceptor 4 (P2X4) at 3 uM, expressed in Xenopus oocytes. The class given is functional, cell-based, Oocyte.

pEC50, pIC50: −log10 of the molar value.

Sequence of P2Y purinoceptor 4 (P51582 whole entry): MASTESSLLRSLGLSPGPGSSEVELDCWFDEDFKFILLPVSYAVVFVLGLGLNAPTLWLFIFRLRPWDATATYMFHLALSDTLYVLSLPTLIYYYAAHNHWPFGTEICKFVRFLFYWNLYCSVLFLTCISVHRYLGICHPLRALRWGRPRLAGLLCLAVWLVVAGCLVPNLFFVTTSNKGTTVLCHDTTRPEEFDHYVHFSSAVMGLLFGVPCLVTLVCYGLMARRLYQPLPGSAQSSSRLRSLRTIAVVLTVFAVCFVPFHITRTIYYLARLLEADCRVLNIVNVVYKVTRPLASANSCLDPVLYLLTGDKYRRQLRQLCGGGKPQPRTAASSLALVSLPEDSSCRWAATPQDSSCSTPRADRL
Sequence of P2Y purinoceptor 12 (Rattus norvegicus, UniProt Q9EPX4) (Q9EPX4 whole entry): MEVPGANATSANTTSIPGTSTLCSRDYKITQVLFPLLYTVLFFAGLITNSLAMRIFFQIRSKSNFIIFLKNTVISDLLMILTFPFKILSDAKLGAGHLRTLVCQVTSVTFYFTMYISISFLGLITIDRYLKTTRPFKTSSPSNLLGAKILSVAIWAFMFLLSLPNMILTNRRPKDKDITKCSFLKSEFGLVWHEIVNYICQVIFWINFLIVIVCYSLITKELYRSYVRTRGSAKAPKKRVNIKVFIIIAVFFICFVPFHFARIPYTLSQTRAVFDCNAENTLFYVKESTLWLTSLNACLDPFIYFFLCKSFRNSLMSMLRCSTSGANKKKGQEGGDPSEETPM
Sequence of P2Y purinoceptor 2 (P41231 whole entry): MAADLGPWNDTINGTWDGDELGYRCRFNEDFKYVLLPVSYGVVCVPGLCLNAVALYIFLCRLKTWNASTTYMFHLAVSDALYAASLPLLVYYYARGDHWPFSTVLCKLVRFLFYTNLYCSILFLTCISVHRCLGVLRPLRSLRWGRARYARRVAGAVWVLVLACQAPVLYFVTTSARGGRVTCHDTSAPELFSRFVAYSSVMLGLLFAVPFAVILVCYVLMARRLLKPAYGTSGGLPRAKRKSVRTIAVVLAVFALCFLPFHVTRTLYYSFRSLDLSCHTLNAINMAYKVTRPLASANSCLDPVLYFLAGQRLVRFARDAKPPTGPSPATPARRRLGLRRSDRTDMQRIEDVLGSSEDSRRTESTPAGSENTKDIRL

Usually pEC50 stands for the EC50 on a negative log10 scale, so that one unit is a factor of ten. The term pIC50 denotes the IC50 on a negative log10 scale, so that one unit is a factor of ten. `Cc1ncc2c(c1O)COP(=O)(O)OC2`: the results for the pEC50 at P2X purinoceptor 2 [1] and at P2X purinoceptor 1 [3] were 4.00 and 4.99, respectively. For the same compound, the pIC50 on P2X purinoceptor 4 [2] was under 4.00.

Turning to `O=S(=O)(O)c1cc(N=C=S)ccc1/C=C/c1ccc(N=C=S)cc1S(=O)(=O)O`, on P2X purinoceptor 7, the pIC50 was 4.46.

In the case of `CCCSc1nc(N)c2ncn([C@@H]3O[C@H](COP(=O)(O)OP(=O)(O)C(Cl)(Cl)P(=O)(O)O)[C@@H](O)[C@H]3O)c2n1`, the pEC50 is 5.82 on P2Y purinoceptor 11 and 8.89 at P2Y purinoceptor 12 [4].

Regarding `Cc1ncc(COP(=O)(O)O)c(C=O)c1O` [PYRIDOXAL PHOSPHATE ANHYDROUS], the pEC50 at P2X purinoceptor 4 [5] was 3.66; at P2X purinoceptor 1 [3], 5.52.

In the case of `CNc1ncnc2c1ncn2[C@H]1C[C@H](OP(=O)(O)O)[C@@H](COP(=O)(O)O)O1`, the pEC50 at P2Y purinoceptor 12 [6] was under 4.00; on P2X purinoceptor 1 [7], 5.94; at P2Y purinoceptor 6, under 4.00; at P2X purinoceptor 2 [8], under 5.00; at P2Y purinoceptor 4, under 4.00; on P2Y purinoceptor 2, under 4.00. In addition, at P2X purinoceptor 4 [10], the pEC50 was under 5.00. Besides, in [9], the pIC50 was under 4.52.
